According to patent US6803195B1, “Facile detection of cancer and cancer risk based on level of coordination between alleles” (Ramot At Tel-Aviv University Ltd., priority 1999, dated 2004):

Test system: CAD samples (hematological malignancy patients at diagnosis)
Assay: FISH replication assay, cultures of hematological malignancy patients (CAD) with chromatin modifiers (Example 10)
Format: cell-based, human
Details: for frequency (%) of SD cells, Mean: CAD + AZA (10^-7M), N = 20
Description: Cultures were set up from 44 healthy individuals (hereafter called CON) and 20 hematological malignancy patients at diagnosis (hereafter termed CAD). For 20 of the CON samples and all of the CAD samples peripheral in addition to the setting up cultures in the regular growth medium, cultures were set up in medium containing 5-azacytidine (10^−7M; Sigma, USA; hereafter referred to as AZA) a demethylating agent. In addition, cultures from 6 CON and 10 CAD samples were set up in medium containing a deacetylating agents, either Trichostatin A (33 nM; Sigma, USA; hereafter referred to as TSA) or Sodium Butirate (1 nM; Sigma, USA; hereafter referred to as NB), two well described acetylating agents.
These samples were hybridized with two commercial probes: the AML1 probe (LSI 21, […]) and the α-satellite probe specific for centromere 17 (32-130017, hereafter marked as CEN17). The results are summarized in Table 1 giving the number of samples hybridized with each probe (N), Mean and standard deviation (stdev) as well as the p value obtained using two tailed student's t-test (Microsoft Office 98).

Which “frequency (%) of SD cells, Mean” value (AML1 locus) does the source give for Nc1ncn([C@@H]2O[C@H](CO)[C@@H](O)[C@H]2O)c(=O)n1 [AZA, 5-azacytidine] here?
Its value is “Mean = 25.3%”.

What about the “frequency (%) of SD cells, Mean” value (CEN17 locus) of the same compound?
Its value is “Mean = 22.7%”.

And the “replication pattern in cells derived from cancer patients” value (cultured cells with chromatin modifier)?
The value was “attenuate the replication pattern presented in cells derived from cancer patients towards the normal”.
